Data taken from patent US10654890B2, “Cyclic peptide derivative, method for preparing same and composition thereof” (priority 2014, dated 2020).
Where a name gives a salt, the structure may show the parent alone.

System: culture astrocyte
Assay: Astrocyte proliferative activity test (BrdU cell proliferation ELISA)
Type: cell-based, mouse
Description: A pregnant ICR female mouse was purchased from Japan SLC, Inc., and a neonatal mouse 24 to 48 after birth was used for the test.
A neonatal ICR mouse (24 to 48 after birth) was sufficiently sterilized with 70% ethanol, immersed in 30 ml of PBS (−) in a 100 mm dish (diameter of 100 mm, Orange Scientific) for cell culture, and then placed in a clean bench. The neonatal mouse was subjected to cervical dislocation using tweezers and euthanized. Head of the neonatal mouse was open and the entire brain was removed. The obtained brain was transferred to a 100 mm dish for cell culture in which 15 ml of high glucose Dulbecco's modified Eagle medium (HG-D-MEM, Wako Pure Chemical Industries, Ltd.) is added. By using tweezers, the olfactory bulb, median eminence, and meninges were removed in the medium to obtain only a cerebrum having hippocampus. Subsequently, the obtained cerebrum was transferred to a 100 mm dish for cell culture added with 10 ml of HG-D-MEM, and using a scalpel, the cerebrum was finely cut to be 1 mm^2 or less. The cerebrum after cutting was transferred, together with the medium, to a 50 ml conical tube (TPP), and after allowing it to stand for 2 minutes, the supernatant was removed. Subsequently, the cerebrum after cutting was added with 4 ml of fresh HG-D-MEM, and after further adding 400 μl of 2.5% trypsin (SIGMA) and 40 μl of 1% DNase I (SIGMA), the cerebrum was incubated in a water bath at 37° C. for 10 minutes under intermittent stirring. Subsequently, to the cerebrum after cutting, 10 ml of HG-D-MEM (10% FBS) was added to terminate the reaction of trypsin followed by centrifuge for 3 minutes at 1,000×g using a centrifuge (H-9R, KOKUSAN Co., Ltd.). The supernatant was collected by an electric pipette, 10 ml of HG-D-MEM (10% FBS) was added to a precipitated cell mass, and pipetting using a sterile pipette was carried out several times until the cell mass is not observed. To remove the remaining cell mass from this cell dispersion, the cell dispersion was passed through a cell strainer (pore diameter of 100 μm, BD Falcon™), and the number of cells in the cell dispersion which has passed through the cell strainer was counted by using a cell counting plate. An adjustment was made with HG-D-MEM (10% FBS) such that the number of cells is 6.0×10^5 cells/ml. After the adjustment of the number of cells, the cell dispersion was seeded, in an amount of 7 ml for each, to a Poly-D-Lysine Cellware 100 mm Dish (PDL 100 mm dish, BD Falcon™). 96 Hours after the seeding, the medium was removed once using an aspirator, and after briefly washing the inside of a 100 mm PDL dish with 10 ml of PBS (−), the medium exchange was carried out by newly adding 7 ml of HG-D-MEM. The above method and the astrocyte preparation described below were carried out based on the method of McCarthy and de Vellis (1980, Non Patent Literature 30).
72 Hours after the medium exchange, the 100 mm PDL dish seeded with the cell broth was removed from the incubator, and tightly covered using a parafilm and fixed by overlaying 3 to 4 dishes. The resultant was cultured by shaking using a bioshaker (MULTI SHAKER MMS, INCUBATOR FMS/EYELA) under a condition including 37° C., 100 rpm, and 20 hours, and the neuronal cells, cell debris, dead cells or the like were liberated. At that time, in the inside the 100 mm PDL dish, only the astrocyte as a glial cell in central nervous system other than neuron was adhered (hereinbelow, described as culture astrocyte). After the shaking, the 100 mm PDL dish was transferred to a clean bench, the supernatant was removed by an aspirator and washed with 10 ml of PBS (−), and after adding 1 ml of 2.5% trypsin (SIGMA) using a Pasteur pipette, the dish was left to stand in an incubator for 10 minutes. The 100 mm PDL dish was again brought back to the clean bench, and added with 10 ml of Dulbecco's modified Eagle medium (D-MEM, Wako Pure Chemical Industries, Ltd.) (10% FBS). […]

| SMILES | astrocyte proliferative activity (25 μM, FIG. 8 and FIG. 9) | astrocyte proliferation compared to the control group (25 μM, FIG. 7) | astrocyte proliferation accelerating activity (0.1, 1, 5, 10, 25, and 50 μM, 24 hours exposure, FIG. 6) | astrocyte proliferative activity (extracts and fractions of the isolation and purification steps, listed as F3-10-4-5-3) | astrocyte proliferative activity (extracts and fractions of the isolation and purification steps, listed as F-3-10-4-5-3) |
| --- | --- | --- | --- | --- | --- |
| COc1cc2c(cc1OC)C(=O)C(CC1CCN(Cc3ccccc3)CC1)C2 (centres unmarked) [donepezil hydrochloride, reference compound] | no significant astrocyte proliferative activity was observed |  |  |  |  |
| CCC1(C)Oc2cc(ccc2O)C(O)C(NC)C(=O)NC(C(C)C)C(=O)NC1C(=O)NC(CCC(=O)O)C(=O)O (centres unmarked) [cyclic peptide derivative] |  | about 12 times | observed with concentration dependency | significant astrocyte proliferative activity | containing the components with an astrocyte proliferative activity |
